In patent US7618816B2, “Metal-binding therapeutic peptides” (Ontherix, Inc., priority 2005, dated 2009):
“And” between values parts separate entries of the source, which are not always exact repeats. Identical values can stand only once. Where a SMILES comes first, the peptide text is derived from it. Where no end group is shown, it is not given here. The star is where a group is joined. Biotin = O=C1N[C@H]2[C@H](CS[C@H]2CCCCC(=O)*)N1

Tests used:
CCRF-CEM = assay: Cytotoxicity of MBD therapeutic peptides; format: cell-based, human; conditions: relative to equal dose of control MBD peptide, only p < 0.05 shown, 1-4 experiments
From the text: (§1) Also, peptides such as NFKB and CSK are of interest, targeting stress-coping mechanisms such as inflammation. The breast cancer lines tested are HS578T, MX-1, MDA-MB231, MDA-MB435 and MCF7. Leukemia cell lines tested for cytotoxicity effects with these MBD-tagged peptides are CCRF-CEM, RPMI-8226 and MOLT-4. Overall, MCF-7 and CCRF-CEM yield the most consistent data and the strongest effect across the board (Table 12). In addition, elevated levels of cytotoxicity are observed when multiple peptides are combined while keeping the overall amount of peptide added constant. Cytotoxicity increases with the number of peptides added per cocktail and is further enhanced by combining peptide cocktail treatment with paclitaxel.

MOLT-4 = assay: Cytotoxicity of MBD therapeutic peptides; format: cell-based, human; conditions: relative to equal dose of control MBD peptide, only p < 0.05 shown, 1-4 experiments
From the text: as §1

RPMI-8826 = assay: Cytotoxicity of MBD therapeutic peptides; format: cell-based, human; conditions: relative to equal dose of control MBD peptide, only p < 0.05 shown, 1-4 experiments
From the text: as §1

SR = assay: Cytotoxicity of MBD therapeutic peptides; format: cell-based; conditions: relative to equal dose of control MBD peptide, only p < 0.05 shown, 1-4 experiments
MCF-7 = assay: Cytotoxicity of MBD therapeutic peptides; format: cell-based, human; conditions: relative to equal dose of control MBD peptide, only p < 0.05 shown, 1-4 experiments
From the text: as §1

MDA-MB231 = assay: Cytotoxicity of MBD therapeutic peptides; format: cell-based, human; conditions: relative to equal dose of control MBD peptide, only p < 0.05 shown, 1-4 experiments
From the text: as §1

MX-I = assay: Cytotoxicity of MBD therapeutic peptides; format: cell-based, human; conditions: relative to equal dose of control MBD peptide, only p < 0.05 shown, 1-4 experiments
From the text: as §1

Hs578T = assay: Cytotoxicity of MBD therapeutic peptides; format: cell-based; conditions: relative to equal dose of control MBD peptide, only p < 0.05 shown, 1-4 experiments
From the text: as §1

MDA-MB435 = assay: Cytotoxicity of MBD therapeutic peptides; format: cell-based; conditions: relative to equal dose of control MBD peptide, only p < 0.05 shown, 1-4 experiments
From the text: as §1

cancer cells = assay: Selective cytotoxicity, cancer cells versus normal counterparts; format: cell-based, human
From the text: as §1

Compound	% viability @ 48 hr/25 ug/ml peptide, CCRF-CEM (CCRF-CEM)	% viability @ 48 hr/25 ug/ml peptide, MOLT-4 (MOLT-4)	% viability @ 48 hr/25 ug/ml peptide, RPMI-8826 (RPMI-8826)	% viability @ 48 hr/25 ug/ml peptide, SR (SR)	% viability @ 48 hr/25 ug/ml peptide, MCF-7 (MCF-7)	% viability @ 48 hr/25 ug/ml peptide, MDA-MB231 (MDA-MB231)	% viability @ 48 hr/25 ug/ml peptide, MX-I (MX-I)	% viability @ 48 hr/25 ug/ml peptide, Hs578T (Hs578T)	% viability @ 48 hr/25 ug/ml peptide, MDA-MB435 (MDA-MB435)	Cytotoxic effect on cancer cells versus normal counterparts (in words) (cancer cells)
Biotin-KKGFYKKKQCRPSKGRKRGFCWAVQTLLQQMQDKFQTMSDQI (cysteines drawn unpaired) [M9HSBP2]	92.6 ± 2.0%	94.2 ± 17.1%	81.7 ± 2.9%	88.9 ± 4.0% and 87.7 ± 6.7%						
CSCC[C@H](NC(=O)[C@H](CC(C)C)NC(=O)[C@H](CCCCN)NC(=O)[C@H](CCC(N)=O)NC(=O)[C@H](CCCNC(=N)N)NC(=O)[C@H](CCCCN)NC(=O)[C@H](CCCNC(=N)N)NC(=O)[C@H](CCC(N)=O)NC(=O)[C@@H](NC(=O)[C@@H]1CCCN1C(=O)[C@H](C)NC(=O)[C@H](Cc1c[nH]c2ccccc12)NC(=O)[C@H](CS)NC(=O)[C@H](Cc1ccccc1)NC(=O)CNC(=O)[C@H](CCCNC(=N)N)NC(=O)[C@H](CCCCN)NC(=O)[C@H](CCCNC(=N)N)NC(=O)CNC(=O)[C@H](CCCCN)NC(=O)[C@H](CO)NC(=O)[C@@H]1CCCN1C(=O)[C@H](CCCNC(=N)N)NC(=O)[C@H](CS)NC(=O)[C@H](CCC(N)=O)NC(=O)[C@H](CCCCN)NC(=O)[C@H](CCCCN)NC(=O)[C@H](CCCCN)NC(=O)[C@H](Cc1ccc(O)cc1)NC(=O)[C@H](Cc1ccccc1)NC(=O)CNC(=O)[C@H](CCCCN)NC(=O)[C@H](CCCCN)NC(=O)CCCC[C@@H]1SC[C@@H]2NC(=O)N[C@@H]21)C(C)C)C(=O)N1CCC[C@H]1C(=O)O [NFKB] (Biotin-KKGFYKKKQCRPSKGRKRGFCWAPVQRKRQKLMP-OH)	47.4 ± 13.9%	35.9 ± 6.8% and 22.5 ± 3.5%	64.6 ± 14.3%		32.8 ± 17.7%	91.6 ± 6.1%	74.1 ± 6.1%	36.3 ± 5.6% and 30.6 ± 2.7%	18.0 ± 1.6% and 29.6 ± 2.6%	
CC(C)C[C@H](NC(=O)[C@H](C)NC(=O)[C@H](C)NC(=O)[C@H](Cc1c[nH]c2ccccc12)NC(=O)[C@H](CS)NC(=O)[C@H](Cc1ccccc1)NC(=O)CNC(=O)[C@H](CCCNC(=N)N)NC(=O)[C@H](CCCCN)NC(=O)[C@H](CCCNC(=N)N)NC(=O)CNC(=O)[C@H](CCCCN)NC(=O)[C@H](CO)NC(=O)[C@@H]1CCCN1C(=O)[C@H](CCCNC(=N)N)NC(=O)[C@H](CS)NC(=O)[C@H](CCC(N)=O)NC(=O)[C@H](CCCCN)NC(=O)[C@H](CCCCN)NC(=O)[C@H](CCCCN)NC(=O)[C@H](Cc1ccc(O)cc1)NC(=O)[C@H](Cc1ccccc1)NC(=O)CNC(=O)[C@H](CCCCN)NC(=O)[C@H](CCCCN)NC(=O)CCCC[C@@H]1SC[C@@H]2NC(=O)N[C@@H]21)C(=O)N[C@@H](CC(=O)O)C(=O)N[C@@H](Cc1c[nH]c2ccccc12)C(=O)N[C@@H](CO)C(=O)N[C@@H](Cc1c[nH]c2ccccc12)C(=O)N[C@@H](CC(C)C)C(=O)N[C@@H](CCC(N)=O)C(=O)N[C@H](C(=O)O)[C@@H](C)O [NEMO] (Biotin-KKGFYKKKQCRPSKGRKRGFCWAALDWSWLQT-OH)				56.9 ± 6.2%	77.0 ± 46.7%	79.0 ± 0.8%	59.1 ± 3.2%	81.3 ± 3.0%	67.4 ± 21.1% and 90.2 ± 3.6%	
CC(C)[C@H](NC(=O)[C@H](C)NC(=O)[C@H](Cc1c[nH]c2ccccc12)NC(=O)[C@H](CS)NC(=O)[C@H](Cc1ccccc1)NC(=O)CNC(=O)[C@H](CCCNC(=N)N)NC(=O)[C@H](CCCCN)NC(=O)[C@H](CCCNC(=N)N)NC(=O)CNC(=O)[C@H](CCCCN)NC(=O)[C@H](CO)NC(=O)[C@@H]1CCCN1C(=O)[C@H](CCCNC(=N)N)NC(=O)[C@H](CS)NC(=O)[C@H](CCC(N)=O)NC(=O)[C@H](CCCCN)NC(=O)[C@H](CCCCN)NC(=O)[C@H](CCCCN)NC(=O)[C@H](Cc1ccc(O)cc1)NC(=O)[C@H](Cc1ccccc1)NC(=O)CNC(=O)[C@H](CCCCN)NC(=O)[C@H](CCCCN)NC(=O)CCCC[C@@H]1SC[C@@H]2NC(=O)N[C@@H]21)C(=O)N[C@@H](C)C(=O)N[C@@H](CCC(=O)O)C(=O)N[C@@H](Cc1ccc(O)cc1)C(=O)N[C@@H](C)C(=O)N[C@@H](CCCNC(=N)N)C(=O)N[C@H](C(=O)N[C@@H](CCC(N)=O)C(=O)N[C@@H](CCCCN)C(=O)N[C@@H](CCCNC(=N)N)C(=O)N[C@@H](CCCCN)C(=O)O)C(C)C [CSK] (Biotin-KKGFYKKKQCRPSKGRKRGFCWAVAEYARVQKRK-OH)	75.1 ± 4.5% and 85.5 ± 2.3%	81.0 ± 7.1% and 54.8 ± 9.7%			21.1 ± 4.1% and 41.3 ± 5.8%			50.2 ± 1.6% and 76.3 ± 0.6%		
CC(C)C[C@H](NC(=O)[C@H](CC(C)C)NC(=O)[C@H](CCCCN)NC(=O)[C@H](Cc1c[nH]c2ccccc12)NC(=O)[C@@H](NC(=O)[C@H](CC(=O)O)NC(=O)[C@H](CO)NC(=O)[C@H](Cc1ccccc1)NC(=O)[C@@H](NC(=O)[C@H](CCC(=O)O)NC(=O)CCCC[C@@H]1SC[C@@H]2NC(=O)N[C@@H]21)[C@@H](C)O)C(C)C)C(=O)N[C@@H](CCCCN)C(=O)N[C@@H](CCCCN)C(=O)NCC(=O)N[C@@H](Cc1ccccc1)C(=O)N[C@@H](Cc1ccc(O)cc1)C(=O)N[C@@H](CCCCN)C(=O)N[C@@H](CCCCN)C(=O)N[C@@H](CCCCN)C(=O)N[C@@H](CCC(N)=O)C(=O)N[C@@H](CS)C(=O)N[C@@H](CCCNC(=N)N)C(=O)N1CCC[C@H]1C(=O)N[C@@H](CO)C(=O)N[C@@H](CCCCN)C(=O)NCC(=O)N[C@@H](CCCNC(=N)N)C(=O)N[C@@H](CCCCN)C(=O)N[C@@H](CCCNC(=N)N)C(=O)NCC(=O)N[C@@H](Cc1ccccc1)C(=O)N[C@@H](CS)C(=O)N[C@@H](Cc1c[nH]c2ccccc12)C(=O)O [PEP-2] (Biotin-ETFSDVWKLLKKGFYKKKQCRPSKGRKRGFCW-OH)		63.5 ± 7.7% and 57.9 ± 1.3% and 88.2 ± 2.6%	38.4 ± 4.2%	33.7 ± 16.0%	19.3 ± 6.3% and 33.5 ± 4.4% and 35.6 ± 5.7%	40.7 ± 1.8%	6.8 ± 1.5% and 9.0 ± 0.6%	31.1 ± 3.0% and 33.5 ± 2.3%	18.5 ± 1.0%	strong cytotoxic effect on cancer cells but not their human counterparts
